Nine compounds from PubChem BioAssay (NCI) can be followed below.

Common to all, as to test: NCI tumour cell line growth inhibition, 48 h
Test [1] concerns NCI/ADR-RES ovarian.
Test [2] concerns SNB-75 CNS.
The subject of test [3] is CAKI-1 renal.
The test system of test [4] is SK-MEL-5 melanoma.
For test [5], the system named is UACC-62 melanoma.
Test [6] relates to TK-10 renal.
In test [7] the test system is SK-OV-3 ovarian.
Test [8] has as its system OVCAR-8 ovarian.
The subject of test [9] is SF-268 CNS.
The subject of test [10] is NCI-H23 lung.

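In this assay, cells in 96-well plates receive the compound at five concentrations for 48 hours. Endpoints are linearly interpolated between the surrounding concentrations. GI50 is the concentration that inhibits growth by half. At the TGI there is no net growth.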

On to `O=C(NO)c1ccc(CNc2cccc3nc(C4CC4)n(-c4ccccc4)c(=O)c23)cc1`, for which the GI50 was 1.28 µM in [1]; 1.78 µM in test [2]; 2.12 µM in [3]; 2.15 µM in test [4]; 1.96 µM in [5]; 1.73 µM in [6]. Also, the GI50 is 2.15 µM in [7] and 1.65 µM in test [8]. Moreover, the TGI in test [1] came out at 6.45 µM; in [2], 5.93 µM; in [3], 7.51 µM; in [4] it was 4.8 µM; in test [5] it was 4.66 µM; in test [6], 7 µM. Also, the TGI in test [7] was 5.4 µM; in test [8] it was 5.82 µM.

As for `c1cc(OCCCCCOc2cccc(-c3nc4ccccc4[nH]3)c2)cc(-c2nc3ccccc3[nH]2)c1`, the GI50 was 1.99 µM in [1]; 3.4 µM in [2]; 1.79 µM in test [3]; 1.68 µM in [4]; 5.12 µM in test [9]; 2.83 µM in test [5]. The figures for the GI50 in [6], in test [7] and in [8] were 3.88 µM, 2.51 µM and 2.53 µM, respectively. In addition, the TGI in [1] was 7.91 µM; in [2], > 100 µM; in test [3], 8.65 µM; in test [4], 3.08 µM; in [9], > 100 µM; in test [5], > 100 µM. Moreover, the TGI in test [6] was > 100 µM; in test [7], 18.1 µM; in test [8], 6.15 µM.

For `COc1cc2c(cc1C)NC(=O)/C2=C\c1ccc(Oc2ccccc2)cc1`, the GI50 was 17.4 µM in [1]; 15.6 µM in [10]; 21 µM in [2]; 17 µM in test [3]; 14.5 µM in test [4]; 11.9 µM in test [5]. In addition, the GI50 in [6] is 16.8 µM; in [7], 17 µM; in [8], 22.8 µM. Further, the TGI turned out to be 36.5 µM in test [1]; 32.2 µM in test [10]; 37.4 µM in test [2]; 33 µM in test [3]; 27.9 µM in [4]; 26 µM in test [5]. Also, the TGI in [6] came to 32.9 µM; in [7], 31.4 µM; in test [8], 64.6 µM.

In the case of `N#C[Se]CCN1C(=O)c2ccccc2C1=O`, the GI50 in test [1] was 1.87 µM; in test [10], 2.93 µM; in test [2], 2.09 µM; in [3], 2.94 µM; in test [9] it was 1.83 µM; in test [5] it was 1.52 µM. Besides, the GI50 in test [6] is 2.13 µM; in test [7], 3.46 µM; in [8], 2.66 µM. Also, the TGI in test [1] came out at 7.42 µM; in test [10], 18.8 µM; in test [2], 5.56 µM; in test [3], 8.62 µM; in [9], 3.84 µM; in [5] it was 3.74 µM. Besides, the results for the TGI in [6], in test [7] and in test [8] were 6.3 µM, 8.72 µM and 8.26 µM, respectively.

For `COc1ccc([C@@H]2[C@@H](Oc3ccccc3)C(=O)N2c2cc(OC)c(OC)c(OC)c2)cc1F`, the GI50 was 0.0949 µM in [1]; 0.7 µM in [10]; 0.0567 µM in [2]; 0.0504 µM in [4]; 0.222 µM in [9]; 0.0419 µM in test [5]. The GI50 in [6] is 6.52 µM; in test [7], 0.38 µM; in [8], 0.189 µM. In addition, the TGI is > 100 µM in test [1]; > 100 µM in test [10]; > 100 µM in test [2]; 1.49 µM in [4]; > 100 µM in test [9]; > 100 µM in [5]. The TGI in test [6], in [7] and in [8] was > 100 µM in each case.

In the case of `COc1cc2c(Oc3ccc(-c4cnc(Nc5ccc(F)cc5)n(C)c4=O)cc3F)ccnc2cc1OCCCN1CCOCC1`, the GI50 was 1.94 µM in test [1]; 1.15 µM in test [10]; 0.61 µM in [2]; 1.05 µM in test [3]; 1.45 µM in test [4]; 1.46 µM in test [9]. In addition, the results for the GI50 in test [6], in test [7] and in test [8] were 1.94 µM, 1.84 µM and 1.87 µM, respectively. For the same compound, the TGI worked out at 6.75 µM in [1]; 2.75 µM in [10]; 1.91 µM in [2]; 2.46 µM in [3]; 2.77 µM in test [4]; 3.38 µM in [9]. Besides, the TGI came out at 3.92 µM in [6], 3.39 µM in test [7] and 4.72 µM in test [8].

Turning to `O=C1c2ccccc2-c2c1c1c(O)cccc1n2Cc1ccccc1`, the GI50 in [1] was 6.5 µM; in test [10], 5.67 µM; in test [3] it was 7.15 µM; in test [4], 5.62 µM; in [9], 6.58 µM; in test [5], 7.35 µM. Moreover, the GI50 in test [6] was 8.74 µM; in [7], 14.5 µM; in test [8] it was 28.6 µM. Further, the TGI was 33.6 µM in [1]; 29.7 µM in test [10]; 20.8 µM in test [3]; 24.7 µM in test [4]; 37.9 µM in [9]; 27.2 µM in [5]. Also, the TGI was 22.5 µM in test [6], 41.7 µM in test [7] and > 100 µM in test [8].

Take `CCOC(=O)C1(C)CCC(C(=O)OC)C1=O` (configuration not stated): the TGI in test [10], in test [2], in test [3], in [4], in [9] and in [5] was > 100 µM in each case. For the same compound, the TGI in [6], in [7] and in [8] was > 100 µM each time.

For the compound `COC(=O)C1CC(=O)O[C@H]1c1ccc(OC)c(OC)c1` (some centres not stated), the TGI in [10], in [2], in test [3], in test [4], in test [9] and in test [5] was > 100 µM each time. For the same compound, the TGI in [6], in test [7] and in test [8] was > 100 µM throughout.
